Data on eight compounds can be found in patent publication US5232633A, “Sulfoethyl carbonate wetting agents and their use in detergent compositions” (priority 1992, dated 1993).

Read-outs that look alike come from different tables or passages of the source. A value given as a limit tells only on which side of the number the result lay.

Data set [1] is described as follows: Critical micelle concentration by surface tension (Wilhemy plate method). The data set is classed as physicochemical. The source says: The CMC is defined as the concentration of a surfactant at which it begins to form micelles in solution rather than precipitate. Specifically, materials that contain both a hydrophobic group and a hydrophilic group, (such as surfactants), will tend to distort the structure of the solvent (i.e, water) they are in and, therefore, increase the free energy of the system. They therefore, concentrate at the surface, whereby orienting so that their hydrophobic groups are directed away from the solvent, the free energy of the solution is minimized. Another means of minimizing the free energy can be achieved by the aggregation of these surface-active molecules into clusters or micelles with their hydrophobic groups directed toward the interior of the cluster and their hydrophilic groups directed toward the solvent.
The value of the CMC is determined by surface tension measurements using the Wilhemy plate method. While not wishing to be bound by theory, it is believed that a low CMC is a measure of surface activity (i.e, lower CMC of one surfactant versus another indicates the surfactant with lower CMC is more surface active). In this regard, it is believed that lower CMC signifies that lesser amounts of a surfactant are required to provide the same surfactancy benefits as a surfactant with higher CMC.

Data set [2] in a line: Calcium ion sensitivity, modified Hart method. The data set is classed as physicochemical. As to conditions: for Ca + 2 Needed for Prec.: titration with calcium ion solution, visual cloudiness endpoint. How it is done:
The surfactant solution was titrated with a calcium ion solution. The endpoint was determined by visual observation of the cloudiness of the surfactant solution.

The nature of data set [3]: Hydrolytic stability at pH 9, 40° C. by reverse phase HPLC. Type of data set: physicochemical. The note with it: 5×10^-4 M in NaHCO3 buffer with 5% CH3CN, 500 µM.
Data set [4] can be described thus: Foam height, Ross-Miles method. Type of data set: physicochemical. As to conditions: 45° C., water with 120 ppm calcium hardness; for Foam Ht., 10 min Ht.: after 10 minutes.
The subject of a further data set is zein. More on the design: species or system maize. How it is done:
Specifically, the lower the amount of zein protein dissolved, usually the milder a surfactant is. Conversely, the more zein dissolved, typically the more irritating the surfactant is. In order to test irritancy potential, a 1% solution of surfactant (30 mls) was added to 1.5 g zein and stirred at room temperature for 1 hr. Residual zein was collected and dried to constant weight. Differences between starting and residual weights were used to calculate % zein dissolved.

Data set [5] in a line: Krafft point of 1% dispersion of surfactant in water. The data set is classed as physicochemical. The note with it: for Krafft Pt.: 1% dispersion in water; for Krafft point (in words): compared with SLI. How it is done: The temperature at and above which surfactants begin to form micelles instead of precipitates is referred to as Krafft point (Tk) and at this temperature the solubility of an ionic surfactant becomes equal to its CMC.
Krafft point was measured by preparing a 1% dispersion of the surfactant in water. If the surfactant was soluble at room temperature, the solution was cooled to 0° C. […] If it precipitated out, the solution was slowly warmed with stirring in a water bath. The temperature at which the precipitate dissolved was determined to be the Krafft point.
If the Krafft point was above room temperature, the solution was first heated rapidly to dissolve all the surfactant. It was then cooled until precipitation occurred, and was then slowly warmed to determine the Krafft point described above.

The mark [6] stands for this setting: 1% solution of surfactant (30 mls), 1.5 g zein, room temperature, 1 hr.

Consider `CCCCCCCCCCCCOC(=O)OCCS(=O)(=O)O.[Na]`, for which the CMC in data set [1] was 2.52 mM. Moreover, the “Calcium sensitivity (in words)” value in data set [2] (compared with non-carbonated isethionate (SLI)) was “greater calcium insensitivity than the ester SLI”. Further, in data set [2], the “Ca + 2 Needed for Prec.” value amounted to 150 ppm. For the same compound, in data set [3], the “Hydrolytic Stability, t 1/2” value came out at 55.2 h. Further, in data set [4], the Foam Ht., 10 min Ht. turned out to be 149 mm. Moreover, in the data set on zein, the “% Zein Solub.” value stood at 49%. For the same compound, in data set [5], the “Krafft Pt.” value came to 24 °C and the “Krafft point (in words)” value is reported as “same Krafft point as the SLI”.

With `CCCCCCCCCCCCOC(=O)OC(CC)CS(=O)(=O)O` (stereo not shown) [S2DBC, Sodium 2-(1-sulfo)butyl dodecyl carbonate], the CMC in data set [1] is 1.46 mM. The “Ca + 2 Needed for Prec.” value in data set [2] is 725 ppm. In addition, the “Hydrolytic Stability, t 1/2” value in data set [3] worked out at 1030 h. In addition, in data set [4], the Foam Ht., 10 min Ht. was found to be 142 mm and the Foam Ht., Initial Ht. was 166 mm. In addition, the “% Zein Solub.” value with zein (setting [6]) came out at 41%. For the same compound, the “Krafft Pt.” value in data set [5] is 0 °C.

Regarding `CCCCCCCCCCC(C)OC(=O)OCCS(=O)(=O)O` (stereo not shown) [SE2DC, Sodium 2-sulfoethyl 2-dodecylcarbonate], the CMC in data set [1] was in the range of 3.7 to 4.0 mM. Besides, the “Ca + 2 Needed for Prec.” value in data set [2] is over 2700 ppm. In data set [3], the “Hydrolytic Stability, t 1/2” value was determined as 223 h. For the same compound, in data set [4], the Foam Ht., 10 min Ht. was 160 mm and the Foam Ht., Initial Ht. worked out at 162 mm. Also, the “% Zein Solub.” value with zein (setting [6]) is given as 47%. For the same compound, the “Krafft Pt.” value in data set [5] stood at 0 °C.

Regarding `CCCCCCCCCCCCOCCOCCOC(=O)OCCS(=O)(=O)O` [SED(2EO)C, Sodium 2-sulfoethyl dodecyl (2EO) carbonate], in data set [4], the Foam Ht., 10 min Ht. came out at 160 mm and the Foam Ht., Initial Ht. was found to be 165 mm. In addition, the “% Zein Solub.” value in the data set with zein (setting [6]) is 25%.

For `CCCCCCCCCCCCOCCOCCOCCOCCOC(=O)OCCS(=O)(=O)O` [SED(4EO)C, Sodium 2-sulfoethyl dodecyl (4EO) carbonate], in data set [4], the Foam Ht., 10 min Ht. is 152 mm and the Foam Ht., Initial Ht. was 158 mm. Further, in the data set on zein (setting [6]), the “% Zein Solub.” value turned out to be 17%.

In turn, `CCCCCCCCCCC(C)OC(=O)OC(C)CS(=O)(=O)O` (stereo not shown) [SI2DC, Sodium 2-sulfoisopropyl 2-dodecyl carbonate] returned a CMC in data set [1] of 2.6 to 2.8 mM. For the same compound, in data set [2], the “Ca + 2 Needed for Prec.” value is 2500 ppm. The “Hydrolytic Stability, t 1/2” value in data set [3] is “≈ 70 Days”. For the same compound, in data set [4], the Foam Ht., 10 min Ht. was 149 mm and the Foam Ht., Initial Ht. came to 156 mm. The “% Zein Solub.” value in the data set on zein (setting [6]) turned out to be 49%. Moreover, in data set [5], the “Krafft Pt.” value is 30 °C and the “Krafft point (in words)” value is “higher”.

In data set [1], `CCCCCCCCCCCCOC(=O)OC(C)CS(=O)(=O)O` (stereo not shown) [SIDC, Sodium 2-sulfoisopropyl dodecyl carbonate] displayed a CMC of 2.39 mM. Besides, the “Ca + 2 Needed for Prec.” value in data set [2] amounted to 2000 ppm. In data set [3], the “Hydrolytic Stability, t 1/2” value came out at 286 h. In data set [4], the Foam Ht., 10 min Ht. turned out to be 161 mm and the Foam Ht., Initial Ht. is 165 mm. Further, the “% Zein Solub.” value with zein (setting [6]) was found to be 51%. Moreover, the “Krafft Pt.” value in data set [5] is 15 °C.

As for `CCCCCCCCCCCC(=O)OCCS(=O)(=O)O` [SLI, sodium lauroyl isethionate, reference compound], in data set [1], the CMC amounted to 6.2 mM. Besides, the “Ca + 2 Needed for Prec.” value in data set [2] is 51 ppm. Also, the “Hydrolytic Stability, t 1/2” value in data set [3] was 24 h. Besides, in data set [4], the “Foam Ht., 10 min Ht.” value was “negligible” and the “Foam Ht., Initial Ht.” value was “negligible”. Moreover, the “Krafft Pt.” value in data set [5] is 24 °C.
